Assay results reported in article PMC10362908 (2023).

Key:
Details in all cases: Na+ 10 mM; Mg2+ carried over from 12 mM annealing buffer; 5 mM TRIS pH 7.0, 20 °C; 0.5 µM DNA, 160 µM PIC; super aggregate
[1] = system: AT (DX-tile) (DNA, junction) TCAGAAGAACAAAAAAAAAA/ACGCATTTGTCGTTCTTCTGATGACCTTGCA/GTACACCTCGCTTTTTTTTTTGTGTCTGCAA/TTGCAGACACGACAAATGCGT/TGCAAGGTCCGCGAGGTGTAC; assay: fluorescence emission (523 nm excitation), aggregate formation
[2] = system: dsDNA + AF (DNA, duplex, amino modifier C6 dT at 19 of strand 1) TGCAAGGTCCGCGAGGTGTAC/GTACACCTCGCGGACCTTGCA; assay: absorbance (580 nm aggregate peak, AF red shift)
[3] = system: ssDNA (DNA, single strand) TGCAAGGTCCGCGAGGTGTAC; assay: fluorescence emission (523 nm excitation), aggregate formation
[4] = system: ssDNA + AF (Strand 5-AF) (DNA, single strand, amino modifier C6 dT at 19) TGCAAGGTCCGCGAGGTGTAC; assay: absorbance (580 nm aggregate peak, AF red shift)
[5] = system: GC + AF (DX-tile) (DNA, junction, amino modifier C6 dT at 19 of strand 5) TCAGAAGAACGCGCGCGCGC/ACGCATTTGTCGTTCTTCTGATGACCTTGCA/GTACACCTCGAGCGCGCGCGCTTGTCTGCAA/TTGCAGACAAGACAAATGCGT/TGCAAGGTCCGCGAGGTGTAC; assay: absorbance (580 nm aggregate peak, AF red shift)
[6] = system: AT + AF (DX-tile) (DNA, junction, amino modifier C6 dT at 19 of strand 5) TCAGAAGAACAAAAAAAAAA/ACGCATTTGTCGTTCTTCTGATGACCTTGCA/GTACACCTCGCTTTTTTTTTTGTGTCTGCAA/TTGCAGACACGACAAATGCGT/TGCAAGGTCCGCGAGGTGTAC; assay: absorbance (580 nm aggregate peak, AF red shift)
[7] = system: GC (DX-tile) (DNA, junction) TCAGAAGAACGCGCGCGCGC/ACGCATTTGTCGTTCTTCTGATGACCTTGCA/GTACACCTCGAGCGCGCGCGCTTGTCTGCAA/TTGCAGACAAGACAAATGCGT/TGCAAGGTCCGCGAGGTGTAC; assay: fluorescence emission (523 nm excitation), aggregate formation
[8] = system: dsDNA (DNA, duplex) TGCAAGGTCCGCGAGGTGTAC/GTACACCTCGCGGACCTTGCA; assay: as above

Measured: binding

CCN1C(=Cc2ccc3ccccc3[n+]2CC)C=Cc2ccccc21
yes: [1] | [2] | [3] | [4] | [5] | [6] | [7] | [8]
